For series [1] the following is noted: 303.15 K; 101.33 kPa; Liquid; Capillary tube (Ostwald / Ubbelohde) method.
Series [2] is described as follows: mn = molality of the nth substance listed, in mol/kg. The note with it: 303.15 K, 101 kPa, Liquid, Capillary tube (Ostwald / Ubbelohde) method.

± gives the expanded uncertainty stated by the source.

The term viscosity denotes the internal friction of a fluid under shear. For the compound `C1COCCO1` [1,4-dioxane], in series [1], the viscosity is 1.075 ± 0.0079 mPa·s.
Consider `CCCCN` [1-butanamine], for which, in series [1], the viscosity is listed as 0.4442 ± 0.0054 mPa·s.
Regarding `CCCCNCCCC` [dibutylamine], in series [1], the viscosity amounted to 0.7584 ± 0.0071 mPa·s.
In the case of `CCCNCCC` [dipropylamine], the viscosity in series [1] amounted to 0.5118 ± 0.0058 mPa·s.
Still for that read-out and setting: the result for `CCCN` [propan-1-amine] reads 0.3527 ± 0.005 mPa·s; that for `C1CCOC1` [tetrahydrofuran], 0.326 ± 0.0047 mPa·s.
The same measure, in the same setting: the result for `CCCCN(CCCC)CCCC` [tributylamine] reads 1.167 ± 0.0097 mPa·s.
In the case of `CCCCN(CCCC)CCCC` [tributylamine] + C1CCOC1, the viscosity in series [2] (m1 = 0.1637) came to 0.3385 ± 0.0047 mPa·s; in series [2] (m1 = 0.3071), 0.3517 ± 0.0048 mPa·s; in series [2] (m1 = 0.4107) it was 0.3637 ± 0.0048 mPa·s; in series [2] (m1 = 0.5836), 0.3764 ± 0.0049 mPa·s; in series [2] (m1 = 0.7131) it was 0.3894 ± 0.0049 mPa·s; in series [2] (m1 = 0.9025), 0.4036 ± 0.005 mPa·s. The viscosity was found to be 0.4181 ± 0.005 mPa·s in series [2] (m1 = 1.125), 0.4323 ± 0.0051 mPa·s in series [2] (m1 = 1.204) and 0.4444 ± 0.0051 mPa·s in series [2] (m1 = 1.31).
For `CCCCN(CCCC)CCCC` [tributylamine] + C1COCCO1, the viscosity in series [2] (m1 = 0.1229) was determined as 1.062 ± 0.0078 mPa·s; in series [2] (m1 = 0.2173), 1.05 ± 0.0078 mPa·s; in series [2] (m1 = 0.3227) it was 1.033 ± 0.0077 mPa·s; in series [2] (m1 = 0.4476), 1.023 ± 0.0077 mPa·s; in series [2] (m1 = 0.5768) it was 1.008 ± 0.0076 mPa·s; in series [2] (m1 = 0.7655), 0.9912 ± 0.0075 mPa·s. Further, the viscosity in series [2] (m1 = 0.8789) is 0.9804 ± 0.0075 mPa·s; in series [2] (m1 = 1.028) it was 0.9659 ± 0.0074 mPa·s; in series [2] (m1 = 1.179) it was 0.9569 ± 0.0074 mPa·s.
As for `CCN(CC)CC` [triethylamine], in series [1], the viscosity came out at 0.3296 ± 0.0049 mPa·s.
In the case of `CCN(CC)CC` [triethylamine] + C1CCOC1, the viscosity amounted to 0.327 ± 0.0047 mPa·s in series [2] (m1 = 0.1482); 0.3293 ± 0.0047 mPa·s in series [2] (m1 = 0.3064); 0.3307 ± 0.0047 mPa·s in series [2] (m1 = 0.4546); 0.3315 ± 0.0047 mPa·s in series [2] (m1 = 0.588); 0.3361 ± 0.0047 mPa·s in series [2] (m1 = 0.7856); 0.3349 ± 0.0047 mPa·s in series [2] (m1 = 0.8993). The viscosity was 0.3376 ± 0.0048 mPa·s in series [2] (m1 = 1.056), 0.3386 ± 0.0048 mPa·s in series [2] (m1 = 1.24) and 0.341 ± 0.0048 mPa·s in series [2] (m1 = 1.418).
Turning to `CCN(CC)CC` [triethylamine] + C1COCCO1, the viscosity in series [2] (m1 = 0.159) is listed as 1.054 ± 0.0078 mPa·s; in series [2] (m1 = 0.2697), 1.042 ± 0.0077 mPa·s; in series [2] (m1 = 0.4098), 1.018 ± 0.0076 mPa·s; in series [2] (m1 = 0.5388) it was 0.998 ± 0.0075 mPa·s; in series [2] (m1 = 0.6616), 0.98 ± 0.0074 mPa·s; in series [2] (m1 = 0.8419), 0.955 ± 0.0073 mPa·s. The viscosity came out at 0.932 ± 0.0072 mPa·s in series [2] (m1 = 0.9909), 0.914 ± 0.0071 mPa·s in series [2] (m1 = 1.135) and 0.894 ± 0.0071 mPa·s in series [2] (m1 = 1.27).
Take `CCCN(CCC)CCC` [tripropylamine]: the viscosity in series [1] is reported as 0.5977 ± 0.0062 mPa·s.
For `CCCN(CCC)CCC` [tripropylamine] + C1CCOC1, the viscosity was found to be 0.3305 ± 0.0047 mPa·s in series [2] (m1 = 0.1317); 0.3364 ± 0.0047 mPa·s in series [2] (m1 = 0.2429); 0.3397 ± 0.0047 mPa·s in series [2] (m1 = 0.3465); 0.3447 ± 0.0048 mPa·s in series [2] (m1 = 0.4545); 0.3523 ± 0.0048 mPa·s in series [2] (m1 = 0.5811); 0.3577 ± 0.0048 mPa·s in series [2] (m1 = 0.6842). The viscosity in series [2] (m1 = 0.8378) stood at 0.3607 ± 0.0048 mPa·s; in series [2] (m1 = 0.9371) it was 0.3681 ± 0.0049 mPa·s; in series [2] (m1 = 1.114), 0.3753 ± 0.0049 mPa·s.
Take `CCCN(CCC)CCC` [tripropylamine] + C1COCCO1: the viscosity is listed as 1.06 ± 0.0078 mPa·s in series [2] (m1 = 0.1093); 1.045 ± 0.0077 mPa·s in series [2] (m1 = 0.2293); 1.032 ± 0.0077 mPa·s in series [2] (m1 = 0.3509); 1.022 ± 0.0076 mPa·s in series [2] (m1 = 0.4408); 1.007 ± 0.0076 mPa·s in series [2] (m1 = 0.5919); 0.9934 ± 0.0075 mPa·s in series [2] (m1 = 0.7147). Also, the viscosity in series [2] (m1 = 0.8383) is reported as 0.9807 ± 0.0075 mPa·s; in series [2] (m1 = 0.9836) it was 0.9694 ± 0.0074 mPa·s; in series [2] (m1 = 1.151), 0.9571 ± 0.0074 mPa·s.

For the origin of these results see the NIST ThermoML archive (doi:10.1016/j.tca.2009.07.008).
